In US20030177531A1, “Regulating metabolism by modifying the level of trehalose-6-phosphate by inhibiting endogenous trehalase levels” (Mogen International N.V., priority 1997, published 2003):

Legend:
trehalase activity = experiment: Trehalose accumulation in potato microtubers induced on medium with Validamycin A; type: cell-based, Solanum tuberosum cv. Kardal; settings: for Trehalose (% fresh weight), +Validamycin A: 10^−3M Validamycin A
Procedure: Stem segments of in vitro potato plants harbouring an auxiliary meristem were transferred to micro-tuber inducing medium. Micro-tuber inducing medium contains 1×MS-salts supplemented with R3 vitamins, 0.5 g/l MES (final pH=5.8, adjusted with KOH) and solidified with 8 g/l Daichin agar, 60 g/l sucrose and 2.5 mg/l kinetin. After 3 to 5 weeks of growth in the dark at 24° C., micro-tubers were formed.
Validamycin A was isolated from Solacol, a commercial agricultural formulation (Takeda Chem. Indust., Tokyo) as described by Kendall et al. (1990) Phytochemistry 29, 2525. The procedure involves ion-exchange chromatography (QAE-Sephadex A-25 (Pharmacia), bed vol. 10 ml, equilibration buffer 0.2 mM Na-Pi pH 7) from a 3% agricultural formulation of Solacol. Loading 1 ml of Solacol on the column and eluting with water in 7 fractions, practically all Validamycin was recovered in fraction 4. Based on a 100% recovery, using this procedure, the concentration of Validamycin A was adjusted to 1.10^−3M in MS-medium, for use in trehalose accumulation tests. Alternatively, Validamycin A and B may be purified directly from Streptomyces hygroscopicus var. limoneus, as described by Iwasa et al. (1971) J. Antibiot. 24, 119, the content of which is incorporated herein by reference.
Carbohydrates were determined quantitatively by anion exchange chromatography with pulsed electrochemical detection. Extracts were prepared by extracting homogenized frozen material with 80% EtOH. After extraction for 15 minutes at room temperature, the soluble fraction is evaporated and dissolved in distilled water. Samples (25 μl) were analyzed on a Dionex DX-300 liquid chromatograph equipped with a 4×250 mm Dionex 35391 carbopac PA-1 column and a 4×50 mm Dionex 43096 carbopac PA-1 precolumn. Elution was with 100 mM NaOH at 1 ml/min followed by a NaAc gradient. Sugars were detected with a pulsed electrochemical detector (Dionex, PED). Commercially available carbohydrates (Sigma) were used as a standard.
Transgenic potato plants were generated harbouring the otsA gene driven by the potato tuber-specific patatin promoter (pMOG845). Potato Solanum tuberosum cv. Kardal tuber discs were transformed with Agrobacterium tumefaciens EHA105 harbouring the binary vector pMOG845. […] All plants obtained were phenotypically indistinguishable from wild type plants. […] The presence of small amounts of trehalose in wild-type plants indicates the presence of a functional trehalose biosynthetic pathway.

[1] = test system: α- or β-glycohydrolase activity; settings: except for trehalase; cited from earlier work

OCC1=C[C@H](N[C@H]2C[C@H](CO)[C@@H](O[C@@H]3O[C@H](CO)[C@@H](O)[C@H](O)[C@H]3O)[C@H](O)[C@H]2O)[C@H](O)[C@@H](O)[C@@H]1O [Validamycin A, 1,5,6-trideoxy-3-o-β-D-glucopyranosyl-5-(hydroxymethyl)-1-[[4,5,6-trihydroxy-3-(hydroxymenthyl)-2-cyclohexen-1-yl]amino]-D-chiro-inositol]
Trehalose level in microtubers versus medium without Validamycin A (trehalase activity; microtuber-inducing medium with 10^−3M Validamycin A, transgenic pMOG845 and wild-type plants): elevated levels of trehalose | Trehalose (% fresh weight), +Validamycin A (trehalase activity; microtubers of transgenic line 845-2 (pat-TPS)): 0.016 % fresh weight | Trehalose (% fresh weight), +Validamycin A (trehalase activity; microtubers of transgenic line 845-8 (pat-TPS)): 0.051 % fresh weight | Trehalose (% fresh weight), +Validamycin A (trehalase activity; microtubers of transgenic line 845-11 (pat-TPS)): 0.015 % fresh weight | Trehalose (% fresh weight), +Validamycin A (trehalase activity; microtubers of transgenic line 845-13 (pat-TPS)): 0.011 % fresh weight | Trehalose (% fresh weight), +Validamycin A (trehalase activity; microtubers of transgenic line 845-22 (pat-TPS)): 0.112 % fresh weight | Trehalose (% fresh weight), +Validamycin A (trehalase activity; microtubers of transgenic line 845-25 (pat-TPS)): 0.002 % fresh weight | Trehalose (% fresh weight), +Validamycin A (trehalase activity; microtubers of transgenic line 845-28 (pat-TPS)): 0.109 % fresh weight | Trehalose (% fresh weight), +Validamycin A (trehalase activity; microtubers of wild-type Kardal): 0.001 % fresh weight | Inhibition of α- or β-glycohydrolase activity other than trehalase [1]: does not significantly inhibit
